Results published in PubChem BioAssay (NCI).
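Growth conditions: 96-well plates. Treatment: test compound, 48 hours, 5 concentrations. Analysis: linear interpolation between bracketing concentrations; unreached endpoints set to highest concentration. At the TGI there is no net growth.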

test system: M14 melanoma; assay: NCI anticancer screen, dose series, 48 h

Structure (SMILES)	TGI [µM]
O=c1ccn(C2OC(CO)C(P(=O)(O)O)C2O)c(=O)[nH]1 (stereo not drawn)	> 100
CCC1=CC2CN3Cn4c(c(COCc5c6n(c7ccccc57)CN5CC7C=C(CC)C5C6(C(=O)OC)C7)c5ccccc54)C(C(=O)OC)(C2)C13	> 100
O=C(Cc1ccccc1)NN1C(=O)/C(=C\c2ccccc2)SC1=Nc1ccccc1	> 100
COc1ccc(CC2c3c(cc(OC)c(OC)c3OC)CCN2C)cc1OC (stereo not drawn)	> 100

test system: CAKI-1 renal; assay: NCI anticancer screen, dose series, 48 h

Structure (SMILES)	TGI [µM]
Cn1ccnc1C(O)(c1nccn1C)c1nccn1C	> 100
CC12CCC3C(CCC4CC(OC(=O)Cc5ccc(N(CCCl)CCCl)cc5)CCC43C)C1CCC(=O)N2 (stereo not drawn)	29.5
CCN(CC)CCCNC(=O)c1ccc([N+](=O)[O-])cc1O	> 100
CN(Cc1ccccc1)c1cc(=O)n(C)c(=O)[nH]1	> 100
COc1ccc(-c2c3c([nH]c(=S)c2C#N)CC(C)(C)CC3=O)cc1	> 100
CC(=O)Oc1cc(C(F)(F)F)ccc1C(=O)OC1(C)OC(=O)c2ccc(C(F)(F)F)cc2O1 (stereo not drawn)	> 100
COc1cc2c(cc1OC)[C@H]1CN3CCC[C@H]3C=C1c1ccc(OC)c(O)c1-2	0.000133
CC1CN=C(N(C(=O)Nc2ccc(F)c(Cl)c2)c2ccccc2)S1 (stereo not drawn)	67
C=Cc1ccc(C)[n+](C[Si](C)(C)O[Si](C)(C)C[n+]2cc(C=C)ccc2C)c1	> 100
O=c1[nH]cnc(NC2C=C(CO)C(O)C2O)c1[N+](=O)[O-] (stereo not drawn)	> 100
CC(=O)OCC1OC(n2cc(I)c(=O)[nH]c2=O)C(OC(C)=O)C(OC(C)=O)C1OC(C)=O (stereo not drawn)	> 100
COc1ccc(/C=C2\C[C@H]3[C@@H]4CCC5=C/C(=N/O)CC[C@]5(C)[C@H]4CC[C@]3(C)\C2=N\O)cc1OC	> 100
C(=Nc1ccc(-c2nc3ccccc3o2)cc1)c1ccco1	> 100
CC(C)=CCC/C(C)=C/COC(C)(C)C1=CCC(C)CC1 (stereo not drawn) (tested in a mixture with another compound)	> 100
O=C(Nc1ccccc1F)c1cc2ccc(O)cc2oc1=Nc1ccccc1F	4.46
Clc1ccc(CSCCc2ccncc2)cc1Cl	> 100
CCCCn1cnc2c(c(CC#N)nn2-c2ccccc2)c1=N	> 100
COc1ccc(-c2oc(/C=N/NC(N)=S)c([N+](=O)[O-])c2-c2ccc(OC)c(OC)c2)cc1OC	> 100
CCN1CCCC(NCc2c3ccccc3c(CNC3CCCN(CC)C3)c3ccccc23)C1 (stereo not drawn)	50
COc1c(O)c2c3c(c(C)cc(O)c3c1O)C(=O)C(O)(C(C)(C)C(C)=O)C2=O (stereo not drawn)	> 100
Nc1nc(N)c(N=O)c(Nc2ccc(Br)cc2)n1	> 100
C[C@]12CC[C@@H]3c4ccc(O)cc4CC[C@H]3[C@@H]1C/C(=C\c1ccncc1)[C@@H]2O	75.2
O=c1ccn(C2OC(CO)C(P(=O)(O)O)C2O)c(=O)[nH]1 (stereo not drawn)	> 100
CCC1=CC2CN3Cn4c(c(COCc5c6n(c7ccccc57)CN5CC7C=C(CC)C5C6(C(=O)OC)C7)c5ccccc54)C(C(=O)OC)(C2)C13	> 100
COc1ccc(CC2c3c(cc(OC)c(OC)c3OC)CCN2C)cc1OC (stereo not drawn)	> 100

test system: SF-295 CNS; assay: NCI anticancer screen, dose series, 48 h

Structure (SMILES)	TGI [µM]
Cn1ccnc1C(O)(c1nccn1C)c1nccn1C	> 100
CC12CCC3C(CCC4CC(OC(=O)Cc5ccc(N(CCCl)CCCl)cc5)CCC43C)C1CCC(=O)N2 (stereo not drawn)	30.3
CCN(CC)CCCNC(=O)c1ccc([N+](=O)[O-])cc1O	> 100
CN(Cc1ccccc1)c1cc(=O)n(C)c(=O)[nH]1	> 100
COc1ccc(-c2c3c([nH]c(=S)c2C#N)CC(C)(C)CC3=O)cc1	> 100
CC(=O)Oc1cc(C(F)(F)F)ccc1C(=O)OC1(C)OC(=O)c2ccc(C(F)(F)F)cc2O1 (stereo not drawn)	> 100
COc1cc2c(cc1OC)[C@H]1CN3CCC[C@H]3C=C1c1ccc(OC)c(O)c1-2	0.00039
Cc1cn([C@@H]2C[C@H](CO)[C@@H](O)C2)c(=O)[nH]c1=O	> 100
CC1CN=C(N(C(=O)Nc2ccc(F)c(Cl)c2)c2ccccc2)S1 (stereo not drawn)	> 100
C=Cc1ccc(C)[n+](C[Si](C)(C)O[Si](C)(C)C[n+]2cc(C=C)ccc2C)c1	> 100
O=c1[nH]cnc(NC2C=C(CO)C(O)C2O)c1[N+](=O)[O-] (stereo not drawn)	> 100
O=C(NC(COC(=O)C(Cc1ccccc1)NC(=O)c1ccccc1)Cc1ccccc1)c1ccccc1 (stereo not drawn)	> 50
CC(=O)OCC1OC(n2cc(I)c(=O)[nH]c2=O)C(OC(C)=O)C(OC(C)=O)C1OC(C)=O (stereo not drawn)	> 100
COc1ccc(/C=C2\C[C@H]3[C@@H]4CCC5=C/C(=N/O)CC[C@]5(C)[C@H]4CC[C@]3(C)\C2=N\O)cc1OC	88.4
CC(C(=O)N1C(=O)N(C(=O)C(C)C(O)c2ccccc2)C2CCCCC21)C(O)c1ccccc1 (stereo not drawn)	> 100
O=C1NCCS(=O)(=O)N[C@@H](CC2=CC=CCC2)C(=O)N2CCCC12 (stereo partly drawn)	> 100
CC(C)=CCC/C(C)=C/COC(C)(C)C1=CCC(C)CC1 (stereo not drawn) (tested in a mixture with another compound)	> 100
O=C(Nc1ccccc1F)c1cc2ccc(O)cc2oc1=Nc1ccccc1F	8.48
N/C(=N\S(=O)(=O)c1c(C(F)(F)F)cccc1C(F)(F)F)Nc1ccc(Cl)cc1	> 100
Clc1ccc(CSCCc2ccncc2)cc1Cl	41.8
CC1(C)C2CC(=O)C1(C)C(O)C2Br (stereo not drawn)	> 100
CC(C)(C)OC(=O)NCCC(N)=S	> 100
CCCCn1cnc2c(c(CC#N)nn2-c2ccccc2)c1=N	> 100
COc1ccc(-c2oc(/C=N/NC(N)=S)c([N+](=O)[O-])c2-c2ccc(OC)c(OC)c2)cc1OC	53.4
